Measured values: PubChem BioAssay (NCI)
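Interpolation was linear, between the two tested concentrations surrounding the appropriate level; five concentrations were tested over 48 hours in 96-well plates. TGI: concentration producing complete growth inhibition.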

Tests used:
Assay in all cases: growth of human tumour cells (NCI), 48 h
[1] = system: U251 CNS
[2] = system: EKVX NSCLC
[3] = system: OVCAR-3 ovarian
[4] = system: HCT-15 colon
[5] = system: XF 498 CNS
[6] = system: KM12 colon
[7] = system: 786-0 renal
[8] = system: OVCAR-8 ovarian
[9] = system: KM20L2 colon
[10] = system: NCI-H23 lung
[11] = system: SF-268 CNS
[12] = system: HT29 colon
[13] = system: DLD-1 colon
[14] = system: SK-MEL-2 melanoma
[15] = system: HL-60(TB) leukemia
[16] = system: OVCAR-5 ovarian
[17] = system: SNB-78 CNS
[18] = system: SK-MEL-28 melanoma
[19] = system: NCI-H522 lung
[20] = system: LXFL 529 NSCLC
[21] = system: SF-295 CNS
[22] = system: HCC-2998 colon
[23] = system: A498 renal
[24] = system: RPMI-8226 leukemia
[25] = system: M14 melanoma
[26] = system: A549 NSCLC
[27] = system: K-562 leukemia
[28] = system: SW-620 colon
[29] = system: SF-539 CNS
[30] = system: UACC-257 melanoma
[31] = system: CAKI-1 renal
[32] = system: DMS 273 small cell lung
[33] = system: UACC-62 melanoma
[34] = system: MOLT-4 leukemia
[35] = system: SK-OV-3 ovarian
[36] = system: SNB-19 CNS
[37] = system: SNB-75 CNS
[38] = system: HCT-116 colon
[39] = system: OVCAR-4 ovarian
[40] = system: DMS 114 small cell lung
[41] = system: SK-MEL-5 melanoma
[42] = system: MALME-3M melanoma
[43] = system: TK-10 renal
[44] = system: SN12C renal
[45] = system: COLO 205 colon
[46] = system: M19-MEL melanoma
[47] = system: CCRF-CEM leukemia
[48] = system: IGROV1 ovarian
[49] = system: LOX IMVI melanoma
[50] = system: UO-31 renal
[51] = system: HOP-62 NSCLC
[52] = system: NCI-H460 lung
[53] = system: ACHN renal
[54] = system: HOP-92 NSCLC
[55] = system: NCI-H226 lung
[56] = system: SR leukemia
[57] = system: RXF 393 renal

N#CCCN(c1ccc(/C=N/c2nc(-c3ccccc3)cs2)cc1)S(=O)(=O)c1ccccc1 gave a TGI [1] greater than 100 µM, a TGI [2] greater than 100 µM and a TGI [3] greater than 100 µM. It also gave a TGI [4] greater than 100 µM, a TGI [5] greater than 100 µM and a TGI [6] greater than 100 µM. The TGI [7] was greater than 100 µM, the TGI [8] was greater than 100 µM and the TGI [9] was greater than 100 µM. It also gave a TGI [10] greater than 100 µM, a TGI [11] greater than 100 µM and a TGI [12] greater than 100 µM. It also gave a TGI [13] greater than 100 µM, a TGI [14] greater than 100 µM and a TGI [15] greater than 100 µM. It also gave a TGI [16] greater than 100 µM, a TGI [17] greater than 100 µM and a TGI [18] greater than 100 µM. The TGI [19] was greater than 100 µM, the TGI [20] was greater than 100 µM and the TGI [21] was greater than 100 µM. It also gave a TGI [22] greater than 100 µM, a TGI [23] greater than 100 µM and a TGI [24] greater than 100 µM. The TGI [25] was greater than 100 µM, the TGI [26] was greater than 100 µM and the TGI [27] was greater than 100 µM. The TGI [28] was greater than 100 µM, the TGI [29] was greater than 100 µM and the TGI [30] was greater than 100 µM. The TGI [31] was greater than 100 µM, the TGI [32] was greater than 100 µM and the TGI [33] was greater than 100 µM. For the same compound, the TGI [34] was greater than 100 µM, the TGI [35] was greater than 100 µM and the TGI [36] was greater than 100 µM. It also gave a TGI [37] of 93.5 µM, a TGI [38] greater than 100 µM and a TGI [39] greater than 100 µM. The TGI [40] was greater than 100 µM, the TGI [41] was greater than 100 µM and the TGI [42] was greater than 100 µM. For the same compound, the TGI [43] was greater than 100 µM, the TGI [44] was greater than 100 µM and the TGI [45] was greater than 100 µM. For the same compound, the TGI [46] was greater than 100 µM, the TGI [47] was greater than 100 µM and the TGI [48] was greater than 100 µM. It also gave a TGI [49] greater than 100 µM, a TGI [50] greater than 100 µM and a TGI [51] greater than 100 µM.

Work on CC(=O)NNc1nc(C)c(C(=O)NNC(=O)C(=O)Nc2c(C)cccc2C(C)C)s1 yielded a TGI [52] greater than 100 µM, a TGI [2] greater than 100 µM and a TGI [3] greater than 100 µM. The TGI [4] was greater than 100 µM, the TGI [5] was greater than 100 µM and the TGI [6] was greater than 100 µM. For the same compound, the TGI [53] was greater than 100 µM, the TGI [7] was greater than 100 µM and the TGI [8] was greater than 100 µM. The TGI [54] was greater than 100 µM, the TGI [9] was greater than 100 µM and the TGI [10] was greater than 100 µM. The TGI [11] was greater than 100 µM, the TGI [12] was greater than 100 µM and the TGI [14] was greater than 100 µM. For the same compound, the TGI [15] was greater than 100 µM, the TGI [16] was greater than 100 µM and the TGI [17] was greater than 100 µM. The TGI [18] was greater than 100 µM, the TGI [19] was greater than 100 µM and the TGI [20] was greater than 100 µM. For the same compound, the TGI [21] was greater than 100 µM, the TGI [22] was greater than 100 µM and the TGI [23] was greater than 100 µM. For the same compound, the TGI [55] was greater than 100 µM, the TGI [24] was greater than 100 µM and the TGI [25] was greater than 100 µM. The TGI [26] was greater than 100 µM, the TGI [27] was greater than 100 µM and the TGI [28] was greater than 100 µM. It also gave a TGI [29] greater than 100 µM, a TGI [30] greater than 100 µM and a TGI [32] greater than 100 µM. For the same compound, the TGI [33] was greater than 100 µM, the TGI [34] was greater than 100 µM and the TGI [35] was greater than 100 µM. The TGI [36] was greater than 100 µM, the TGI [38] was greater than 100 µM and the TGI [39] was greater than 100 µM. The TGI [40] was greater than 100 µM, the TGI [41] was greater than 100 µM and the TGI [42] was greater than 100 µM. The TGI [43] was greater than 100 µM, the TGI [44] was greater than 100 µM and the TGI [45] was greater than 100 µM. For the same compound, the TGI [46] was greater than 100 µM, the TGI [56] was greater than 100 µM and the TGI [47] was greater than 100 µM. The TGI [48] was greater than 100 µM, the TGI [49] was greater than 100 µM and the TGI [50] was greater than 100 µM. It also gave a TGI [51] greater than 100 µM.

O=C(Nc1ccc(F)cc1)C(=O)C(C(=O)c1ccccc1F)C1OC(=O)c2ccccc21 (stereo unspecified) gave a TGI [52] greater than 100 µM, a TGI [1] of 66.1 µM and a TGI [2] greater than 100 µM. It also gave a TGI [4] greater than 100 µM, a TGI [5] greater than 100 µM and a TGI [6] greater than 100 µM. The TGI [53] was greater than 100 µM, the TGI [8] was greater than 100 µM and the TGI [54] was greater than 100 µM. For the same compound, the TGI [9] was greater than 100 µM, the TGI [10] was greater than 100 µM and the TGI [11] was greater than 100 µM. For the same compound, the TGI [12] was greater than 100 µM, the TGI [13] was greater than 100 µM and the TGI [14] was greater than 100 µM. For the same compound, the TGI [15] was greater than 100 µM, the TGI [16] was greater than 100 µM and the TGI [17] was greater than 100 µM. It also gave a TGI [18] greater than 100 µM, a TGI [19] of 71.8 µM and a TGI [20] greater than 100 µM. For the same compound, the TGI [21] was greater than 100 µM, the TGI [22] was greater than 100 µM and the TGI [23] was greater than 100 µM. For the same compound, the TGI [57] was greater than 100 µM, the TGI [55] was 63.5 µM and the TGI [24] was greater than 100 µM. The TGI [25] was greater than 100 µM, the TGI [26] was greater than 100 µM and the TGI [27] was greater than 100 µM. For the same compound, the TGI [28] was greater than 100 µM, the TGI [29] was 89.9 µM and the TGI [30] was greater than 100 µM. For the same compound, the TGI [31] was greater than 100 µM, the TGI [32] was greater than 100 µM and the TGI [33] was greater than 100 µM. It also gave a TGI [34] greater than 100 µM, a TGI [35] greater than 100 µM and a TGI [36] greater than 100 µM. It also gave a TGI [37] greater than 100 µM, a TGI [38] greater than 100 µM and a TGI [39] greater than 100 µM. For the same compound, the TGI [40] was greater than 100 µM, the TGI [41] was greater than 100 µM and the TGI [43] was greater than 100 µM. It also gave a TGI [44] greater than 100 µM, a TGI [45] greater than 100 µM and a TGI [56] of 59.6 µM. For the same compound, the TGI [47] was 90.8 µM, the TGI [48] was greater than 100 µM and the TGI [49] was greater than 100 µM. For the same compound, the TGI [50] was greater than 100 µM and the TGI [51] was greater than 100 µM.
